Laboratory results: PubChem BioAssay AID449774 (The Scripps Research Institute Molecular Screening Center, 2010)
Values after ≈ are worked out from the molar mass of the structure shown.

Test system: wildtype E. coli growth inhibition, MIC
Assay: minimum inhibitory concentration in E. coli – MIC, dose response, counter-screen for IMP-1/VIM-2 inhibitor project, late-stage follow-up (AID 449774)

`Cc1cc[c]([Hg+])cc1` and `CC(=O)Nc1cc[c]([Hg+])cc1` are the same in MIC: 1.56 µM for the first, 1.56 µM for the second.

First: O=C(O)c1ccc[c]([Hg+])c1
Second: O=C(O)c1cc[c]([Hg][Cl])cc1
The MIC of the first is 4-fold lower: 3.13 µM for the first, 12.5 µM for the second.

Going from `[Hg+][c]1ccccc1` to `COc1cccc[c]1[Hg+]`, the MIC rises from 0.39 µM to 0.78 µM (2-fold).

`C[C@@H](O)[C@H]1C(=O)N2C(C(=O)O)=C(SCCN=CN)C[C@H]12` was tested, and the MIC was 0.78 µM (≈ 0.233 µg/mL).
